# Data as given in US20050215614A1, “Substituted indoles and their use as hcv inhibitors” (Rigel Pharmaceuticals, Inc., priority 2003, published 2005).
# Test system: HCV replicon
# Experiment: HCV Replicon Assay (luciferase, 5-2 Luc replicon cells)
# Assay type: cell-based
# Details: 5-2 Luc replicon cells (Huh7), 24-48 hours with compound, luciferase counts
# Protocol: Actively dividing 5-2 Luc replicon cells were seeded at the density of 5000-7500 cells/well in the volume of 90 μl/well into 96 well plate(s). The cells were then incubated at 37° C. and 5% CO2 for 24 hours. The 5-2 cells are replicon cells licensed from Ralf Bartenschlager (Germany) and have a self-replicating RNA molecule in the Huh7 cell; the RNA contains HCV non-structural proteins that make the self-replication possible.
# Various concentrations of compounds (in the volume of 10 μl) were added into each well 24 hours after seeding the cells. The cells were incubated for another 24-48 hours before luciferase assay.
# After incubating the 5-2 Luc replicon cells with the compounds for 24-48 hours, media were aspirated from each well and Bright-Glo (Promega) luciferase assay reagents were added to each well according to the manufacturer′s manual. Briefly, the Bright-Glo reagent was diluted with equal volume of PBS and an aliquote (100 μl) was added to each well. After incubating the plate at room temperature for 5 minutes, luciferase counts were taken using a luminometer.
row,SMILES,Activity (concentration of inhibitory activity)
1,"Cc1cccc(C)c1C(=O)n1c(C)cc2cc(NC(=O)C3CCCCC3)ccc21 [Compound 16f-2, 5-Cyclohexanecarbonylamino-1-(2′,6′-dimethylbenzoyl)-2-methylindole]",a (“a” indicates inhibitory activity at a concentration of less than 10 micromolar)
2,"Cc1cccc(C)c1C(=O)n1c(C)cc2cc(NC(=O)C3CCC3)ccc21 [Compound 16f-3, 5-Cyclobutanecarbonylamino-1-(2′,6′-dimethylbenzoyl)-2-methylindole]",a (“a” indicates inhibitory activity at a concentration of less than 10 micromolar)
3,"Cc1cccc(C)c1C(=O)n1c(C)cc2cc(NC(=O)C3CC3)ccc21 [Compound 16f-4, 5-Cyclopropanecarbonylamino-1-(2′,6′-dimethylbenzoyl)-2-methylindole]",a (“a” indicates inhibitory activity at a concentration of less than 10 micromolar)
4,"Cc1cccc(C)c1C(=O)n1c(C)cc2cc(NC(=O)C3CCC(=O)C3)ccc21 (stereo not shown) [Compound 16f-5, 1-(2′,6′-Dimethylbenzoyl)-5-(3-oxo-1-cyclopentanecarbonyl)amino-2-methylindole]",a (“a” indicates inhibitory activity at a concentration of less than 10 micromolar)
5,"Cc1cc2cc(NC(=O)C3CCCC3)ccc2n1C(=O)c1cc(Cl)nc(Cl)c1 [Compound 16g-1, 5-Cyclopentanecarbonylamino-l-(2′,6′-dichloro-4′-pyridylcarbonyl)-2-methylindole]",a (“a” indicates inhibitory activity at a concentration of less than 10 micromolar)
6,"Cc1cc2cc(NC(=O)C3CC3)ccc2n1C(=O)c1cc(Cl)nc(Cl)c1 [Compound 16g-2, 5-Cyclopropanecarbonylamino-1-(2′,6′-dichloro-4′-pyridylcarbonyl)-2-methylindole]",a (“a” indicates inhibitory activity at a concentration of less than 10 micromolar)
7,"Cc1cc2cc(NC(=O)C3CCC(=O)C3)ccc2n1C(=O)c1cc(Cl)nc(Cl)c1 (stereo not shown) [Compound 16g-3, 1-(2′,6′-Dichloro-4-pyridylcarbonyl)-5-(3-oxo-1-cyclopentanecarbonyl)amino-2-methylindole]",a (“a” indicates inhibitory activity at a concentration of less than 10 micromolar)
8,"Cc1cc2cc(NC(=O)C3CCCC3)ccc2n1C(=O)c1ccccc1Cl [Compound 18, 1-(2′-Chlorobenzoyl)-5-cyclopentanecarbonylamino-2-methylindole]",b (“b” indicates activity is at a concentration greater than 10 micromolar)
9,"COc1ccccc1C(=O)n1c(C)cc2cc(NC(=O)C3CCCC3)ccc21 [Compound 19, 1-(o-Anisoyl)-5-cyclopentanecarbonylamino-2-methylindole]",a (“a” indicates inhibitory activity at a concentration of less than 10 micromolar)
10,CC(C)(C)c1cc2cc(NC(=O)CCN3CCCCC3)ccc2[nH]1 [Compound 213],b (“b” indicates activity is at a concentration greater than 10 micromolar)
11,CC(=O)N1CCC(C(=O)Nc2ccc3[nH]c(C(C)(C)C)cc3c2)CC1 [Compound 214],b (“b” indicates activity is at a concentration greater than 10 micromolar)
12,CC(C)(C)c1cc2cc(NC(=O)CCc3c[nH]c4ccccc34)ccc2[nH]1 [Compound 215],b (“b” indicates activity is at a concentration greater than 10 micromolar)
13,CC(C)(C)c1cc2cc(NC(=O)Cc3ccc4c(c3)OCO4)ccc2[nH]1 [Compound 216],b (“b” indicates activity is at a concentration greater than 10 micromolar)
14,CC(C)(C)c1cc2cc(NC(=O)Cc3cccnc3)ccc2[nH]1 [Compound 217],b (“b” indicates activity is at a concentration greater than 10 micromolar)
15,CC(=O)NCCC(=O)Nc1ccc2[nH]c(C(C)(C)C)cc2c1 [Compound 218],b (“b” indicates activity is at a concentration greater than 10 micromolar)
16,CC(C)(C)c1cc2cc(NC(=O)CC(c3ccccc3)c3ccccc3)ccc2[nH]1 [Compound 219],b (“b” indicates activity is at a concentration greater than 10 micromolar)
17,CC(C)(C)c1cc2cc(NC(=O)Cc3ccc(F)cc3)ccc2[nH]1 [Compound 220],b (“b” indicates activity is at a concentration greater than 10 micromolar)
18,CC(C)(C)c1cc2cc(NC(=O)Cc3ccc(-c4ccccc4)cc3)ccc2[nH]1 [Compound 221],b (“b” indicates activity is at a concentration greater than 10 micromolar)
19,CN(C)CCCC(=O)Nc1ccc2[nH]c(C(C)(C)C)cc2c1 [Compound 222],b (“b” indicates activity is at a concentration greater than 10 micromolar)
20,COc1cscc1C(=O)Nc1ccc2[nH]c(C(C)(C)C)cc2c1 [Compound 223],a (“a” indicates inhibitory activity at a concentration of less than 10 micromolar)

row,SMILES,Activity (concentration of inhibitory activity)
1,CCCC(=O)Nc1ccc2[nH]c(C(C)(C)C)cc2c1 [Compound 224],b (“b” indicates activity is at a concentration greater than 10 micromolar)
2,CC(C)(C)c1cc2cc(NC(=O)c3ccccc3)ccc2[nH]1 [Compound 225],b (“b” indicates activity is at a concentration greater than 10 micromolar)
3,CC(C)(C)c1cc2cc(NC(=O)c3cccc(F)c3)ccc2[nH]1 [Compound 226],b (“b” indicates activity is at a concentration greater than 10 micromolar)
4,CC(C)(C)c1cc2cc(NC(=O)c3cccc(Cl)c3)ccc2[nH]1 [Compound 227],b (“b” indicates activity is at a concentration greater than 10 micromolar)
5,CC(C)(C)c1cc2cc(NC(=O)c3cc4ccccc4s3)ccc2[nH]1 [Compound 228],b (“b” indicates activity is at a concentration greater than 10 micromolar)
6,CC(C)(C)c1cc2cc(NC(=O)c3sccc3Cl)ccc2[nH]1 [Compound 229],b (“b” indicates activity is at a concentration greater than 10 micromolar)
7,CC(C)(C)c1cc2cc(NC(=O)c3ccco3)ccc2[nH]1 [Compound 230],b (“b” indicates activity is at a concentration greater than 10 micromolar)
8,Cc1cn(C(=O)c2c(Cl)cccc2Cl)c2ccc(NC(=O)C3(c4ccc(Cl)cc4)CCCC3)cc12 [Compound 231],b (“b” indicates activity is at a concentration greater than 10 micromolar)
9,Cc1cn(C(=O)c2c(Cl)cccc2Cl)c2ccc(NC(=O)c3c(Cl)cccc3Cl)cc12 [Compound 232],b (“b” indicates activity is at a concentration greater than 10 micromolar)
10,Cc1ccsc1C(=O)Nc1ccc2c(c1)c(C)cn2C(=O)c1c(Cl)cccc1Cl [Compound 233],b (“b” indicates activity is at a concentration greater than 10 micromolar)
11,Cc1cn(C(=O)c2c(Cl)cccc2Cl)c2ccc(NC(=O)c3c(F)cccc3F)cc12 [Compound 235],b (“b” indicates activity is at a concentration greater than 10 micromolar)
12,Cc1cn(C(=O)c2c(Cl)cccc2Cl)c2ccc(NC(=O)C3CCCCC3)cc12 [Compound 236],b (“b” indicates activity is at a concentration greater than 10 micromolar)
13,Cc1cn(C(=O)c2c(Cl)cccc2Cl)c2ccc(NC(=O)/C=C/c3ccccc3)cc12 [Compound 237],b (“b” indicates activity is at a concentration greater than 10 micromolar)
14,Cc1c(C)n(C(=O)c2c(Cl)cccc2Cl)c2ccc(NC(=O)/C=C/c3ccccc3)cc12 [Compound 238],b (“b” indicates activity is at a concentration greater than 10 micromolar)
15,Cc1cc2cc(NC(=O)C3CCCC3)ccc2n1C(=O)c1ccc(Cl)cc1Cl [Compound 239],b (“b” indicates activity is at a concentration greater than 10 micromolar)
16,Cc1cc2cc(NC(=O)C3CCCC3)ccc2n1C(=O)c1cccc(OC(F)(F)F)c1 [Compound 240],b (“b” indicates activity is at a concentration greater than 10 micromolar)
17,Cc1cc2cc(NC(=O)C(Cl)Cl)ccc2n1C(=O)c1c(Cl)cccc1Cl [Compound 241],b (“b” indicates activity is at a concentration greater than 10 micromolar)
18,Cc1cc2cc(NC(=O)c3cccs3)ccc2n1C(=O)c1c(Cl)cccc1Cl [Compound 242],b (“b” indicates activity is at a concentration greater than 10 micromolar)
19,Cc1cc2cc(NC(=O)c3cccc(C(F)(F)F)c3)ccc2n1C(=O)c1c(Cl)cccc1Cl [Compound 243],b (“b” indicates activity is at a concentration greater than 10 micromolar)
20,Cc1cc2cc(NC(=O)c3cccc(F)c3)ccc2n1C(=O)c1c(Cl)cccc1Cl [Compound 244],b (“b” indicates activity is at a concentration greater than 10 micromolar)
